Key:
[1] = test system: spontaneous breast tumors; test: Incidence and growth of spontaneous breast tumors in MMTV-PyMT mice; assay type: in vivo, mouse; details: FIG. 12, 1 mg/kg every other day from 12th week, week 15
Method: The MMTV-PyMT mice were crossed with PRAK mice to obtain MMTV-PRAK WT and MMTV-PRAK knockout mice. From 8 to 10 weeks, the occurrence of breast tumors was observed. Another group of MMTV-PRAK WT mice were given PRAK inhibitor (1 mg/kg) every other day from the 12th week. At week 15, the mice were sacrificed, breast tumor nodules were counted and weighed, and lung tumor nodules were counted at the same time.

[2] = test system: B16-F10 cells; test: AnnexinV/7-AAD staining, apoptosis by flow cytometry; assay type: cell-based, mouse; details: FIG. 2; 0.1 μM and 1 μM, 24 hours
Method: AnnexinV/7-AAD staining: Cells were plated on 24-well plates. 0.1 μM and 1 μM of PRAK inhibitor-23 were added for treatment after the cells adhered to the walls. After 24 hours, the cells were harvested for Annexin V/7-AAD staining, and the cell apoptosis was analyzed by flow cytometry.

[3] = test system: B16-F10 tumors; test: Growth of subcutaneously inoculated B16-F10 tumors in C57BL/6 mice; assay type: in vivo, mouse; details: FIG. 5, 2 mg/kg/d intraperitoneal
Method: 3. Effects on tumor growth in situ Experimental procedure: The C57BL/6 female mice of 6 to 8 week old (commercially available, for example, from Charles River) were selected for the experiment. The B16-F10 cells in the logarithmic growth phase were digested, and washed twice with PBS. After counting, the cells were resuspended in PBS at a density of 1.5×10^6/ml. The tumor cells (3×10^5 cells in 200 μL) were subcutaneously inoculated into the lateral ribs of mice. The drug-treated group was intraperitoneally injected with PRAK inhibitor-23 at 2 mg/kg/d.
The long diameter (L) and short diameter (S) of the tumor were measured with vernier calipers every two days, the tumor size was calculated with the formula L×S×S×0.5, and the tumor growth curve was drawn.

[4] = test system: B16-F10 cells; test: MTS cell proliferation assay; assay type: cell-based, mouse; details: FIG. 1, in vitro
Method: MTS: Same numbers of PRAK WT and KO cells were plated on 96-well plates. Cell Titer 96 Aqueous cell proliferation detection solution was added at different time points after the cells adhered to the walls. After incubation at 37° C. for 1 to 4 hours, the absorbance was measured at 490 nm and the cell proliferation curve was drawn.

O=C1NCc2cc(-c3cnc(Nc4ccc(N5CCOCC5)cc4)c4nccn34)ccc21 [PRAK inhibitor-23, 5-(8-((4-morpholinylphenyl)amino)imidazo [1,2-a]pyrazin-5-yl) isoindol-1-one]
no significant effect: effect on the incidence and growth of spontaneous breast tumors [1] | effect on the apoptosis of B16-F10 cells [2] | effect on the growth of subcutaneously inoculated B16-F10 tumors at the injection site [3] | effect on the proliferation of B16-F10 cells [4]
